One assay has as its system MOLM-13 cells. The assay can be described thus: Cell viability assay (CellTiter-Glo) in MOLM-13 cells, alone or with gilteritinib. In kind it is cell-based. The following applies: Homo sapiens, MOLM-13, 72 h, MOLM-13 cells, three days, CellTiter-Glo.
The subject of a further assay is MV4;11 cells. The assay can be described thus: Cell viability assay (CellTiter-Glo) in MV4;11 cells, alone or with gilteritinib. The format is cell-based. The conditions noted are these: Homo sapiens, MV4-11, 72 h, MV4;11 cells, three days, CellTiter-Glo, read-out: MV4.
Where [1] appears, read: compound alone (without gilteritinib), read-out: MOLM-13 IC50.
[2] abbreviates: compound with gilteritinib 20 nM, read-out: MOLM-13 IC50 gilteritinib.
Setting [3] is: compound alone (without gilteritinib), 11 IC50.
Setting [4] is: compound with gilteritinib 10 nM, 11 IC50 gilteritinib.
[5] abbreviates: with gilteritinib 20 nM, read-out: MOLM-13 IC50 gilteritinib.
The mark [6] stands for this setting: with gilteritinib 10 nM, 11 IC50 gilteritinib.

Read-outs that look alike come from different tables or passages of the source.

Consider `O=C1CCC(N2C(=O)c3ccc(NCCC[C@H]4C[C@H](n5ccc(C6CC6)n5)C4)cc3C2=O)C(=O)N1` (stereo partly drawn) [GS-591, 5-((3-(trans-3-(3-Cyclopropyl-1H-pyrazol-1-yl)cyclobutyl)propyl)amino)-2-(2,6-dioxopiperidin-3-yl)isoindoline-1,3-dione], for which the IC50 was more than 1000 nM with MOLM-13 cells (setting [1]), 100 to 1000 nM with MOLM-13 cells (setting [2]), more than 1000 nM with MV4;11 cells (setting [3]) and 100 to 1000 nM in the assay with MV4;11 cells (setting [4]).
In the case of `O=C1CCC(N2C(=O)c3ccc(NCCC[C@H]4C[C@H](n5cc(-c6cc(Cl)ccn6)cn5)C4)cc3C2=O)C(=O)N1` (stereo partly drawn) [GS-328, 5-((3-(trans-3-(4-(4-Chloropyridin-2-yl)-1H-pyrazol-1-yl)cyclobutyl)propyl)amino)-2-(2,6-dioxopiperidin-3-yl)isoindoline-1,3-dione], the IC50 in the assay on MOLM-13 cells (setting [1]) was more than 1000 nM; with MOLM-13 cells (setting [5]), 10 to 100 nM; in the assay with MV4;11 cells (setting [3]) it was 100 to 1000 nM; in the assay on MV4;11 cells (setting [6]), 10 to 100 nM.
For the compound `O=C1CCC(N2C(=O)c3ccc(NCCCCCCn4nc(C(F)(F)F)c(-c5cnc6ccccc6n5)c4C(F)(F)F)cc3C2=O)C(=O)N1` (centres unmarked) [GS-554, 2-(2,6-Dioxopiperidin-3-yl)-5-((6-(4-(quinoxalin-2-yl)-3,5-bis(trifluoromethyl)-1H-pyrazol-1-yl)hexyl)amino)isoindoline-1,3-dione], the IC50 is more than 1000 nM in the assay on MOLM-13 cells (setting [1]), 10 to 100 nM in the assay on MOLM-13 cells (setting [2]), 100 to 1000 nM in the assay with MV4;11 cells (setting [3]) and 10 to 100 nM in the assay with MV4;11 cells (setting [4]).
Consider `O=C(CC1CC1n1cc(-c2cnc3ccccc3n2)cn1)NCc1ccc2c(c1)CN(C1CCC(=O)NC1=O)C2=O` (centres unmarked) [GS-109, N-((2-(2,6-Dioxopiperidin-3-yl)-1-oxoisoindolin-5-yl)methyl)-2-(2-(4-(quinoxalin-2-yl)-1H-pyrazol-1-yl)cyclopropyl)acetamide], for which the IC50 in the assay with MOLM-13 cells (setting [1]) is more than 1000 nM; in the assay with MOLM-13 cells (setting [5]), 100 to 1000 nM; with MV4;11 cells (setting [3]) it was 100 to 1000 nM; with MV4;11 cells (setting [6]) it was 100 to 1000 nM.
For the compound `O=C1CCC(N2Cc3c(Nc4ccnc(Nc5cccc(CN6CCC(n7cc(-c8cnc9cccc(Br)c9n8)cn7)CC6)c5)n4)cccc3C2=O)C(=O)N1` (centres unmarked) [GS-028, 3-(4-((2-((3-((4-(4-(8-Bromoquinoxalin-2-yl)-1H-pyrazol-1-yl)piperidin-1-yl)methyl)phenyl)amino)pyrimidin-4-yl)amino)-1-oxoisoindolin-2-yl)piperidine-2,6-dione], the IC50 in the assay on MOLM-13 cells (setting [1]) was 100 to 1000 nM; in the assay on MOLM-13 cells (setting [5]) it was 10 to 100 nM; with MV4;11 cells (setting [3]) it was 10 to 100 nM; in the assay with MV4;11 cells (setting [6]) it was 10 to 100 nM.
In the case of `O=C1CCC(N2Cc3c(NC4CCCC(Nc5cccc(N6CCC(n7cc(-c8cnc9ccccc9n8)cn7)CC6)c5)C4)cccc3C2=O)C(=O)N1` (centres unmarked) [GS-110, 3-(1-Oxo-4-((3-((3-(4-(4-(quinoxalin-2-yl)-1H-pyrazol-1-yl)piperidin-1-yl)phenyl)amino)cyclohexyl)amino)isoindolin-2-yl)piperidine-2,6-dione], the IC50 with MOLM-13 cells (setting [1]) was 10 to 100 nM; with MOLM-13 cells (setting [5]), less than 10 nM; with MV4;11 cells (setting [3]), less than 10 nM; in the assay with MV4;11 cells (setting [6]), less than 10 nM.
With `O=C1CCC(N2C(=O)c3ccc(NCCC[C@H]4C[C@@H](n5cc(-c6cnc7ccccc7n6)cn5)C4)cc3C2=O)C(=O)N1` (stereo partly drawn) [GS-177, 2-(2,6-Dioxopiperidin-3-yl)-5-((3-(cis-3-(4-(quinoxalin-2-yl)-1H-pyrazol-1-yl)cyclobutyl)propyl)amino)isoindoline-1,3-dione], the IC50 with MOLM-13 cells (setting [1]) was more than 1000 nM; with MOLM-13 cells (setting [5]) it was 10 to 100 nM; in the assay with MV4;11 cells (setting [3]) it was more than 1000 nM; with MV4;11 cells (setting [6]), 100 to 1000 nM.
As to `Cc1nc2ccccc2nc1-c1cnn(CCCCCCNc2ccc3c(c2)C(=O)N(C2CCC(=O)NC2=O)C3=O)c1` (centres unmarked) [GS-502, 2-(2,6-Dioxopiperidin-3-yl)-5-((6-(4-(3-methylquinoxalin-2-yl)-1H-pyrazol-1-yl)hexyl)amino)isoindoline-1,3-dionee], the IC50 with MOLM-13 cells (setting [1]) was 100 to 1000 nM; in the assay with MOLM-13 cells (setting [2]) it was 10 to 100 nM; with MV4;11 cells (setting [3]) it was 100 to 1000 nM; with MV4;11 cells (setting [4]), 10 to 100 nM.
Take `O=C1CCC(N2C(=O)c3ccc(NCCCCCCn4cc(-c5cnc6cccc(Br)c6n5)cn4)cc3C2=O)C(=O)N1` (centres unmarked) [GS-315, 5-((6-(4-(8-Bromoquinoxalin-2-yl)-1H-pyrazol-1-yl)hexyl)amino)-2-(2,6-dioxopiperidin-3-yl)isoindoline-1,3-dione]: the IC50 with MOLM-13 cells (setting [1]) is 100 to 1000 nM; in the assay on MOLM-13 cells (setting [5]), 10 to 100 nM; in the assay on MV4;11 cells (setting [3]), 10 to 100 nM; with MV4;11 cells (setting [6]), less than 10 nM.
As to `O=C1CCC(N2C(=O)c3ccc(NCCCCC(=O)N4CCC(n5cc(-c6cnc7ccccc7n6)cn5)CC4)cc3C2=O)C(=O)N1` (centres unmarked) [GS-323, 2-(2,6-Dioxopiperidin-3-yl)-5-((5-oxo-5-(4-(4-(quinoxalin-2-yl)-1H-pyrazol-1-yl)piperidin-1-yl)pentyl)amino)isoindoline-1,3-dione], the IC50 was more than 1000 nM in the assay on MOLM-13 cells (setting [1]), less than 10 nM in the assay with MOLM-13 cells (setting [5]), 100 to 1000 nM in the assay on MV4;11 cells (setting [3]) and less than 10 nM in the assay with MV4;11 cells (setting [6]).
Regarding `O=C1CCC(N2C(=O)c3ccc(NCC4CC5(C4)CC(n4cc(-c6cnc7ccccc7n6)cn4)C5)cc3C2=O)C(=O)N1` (centres unmarked) [GS-539, 2-(2,6-Dioxopiperidin-3-yl)-5-(((6-(4-(quinoxalin-2-yl)-1H-pyrazol-1-yl)spiro[3.3]heptan-2-yl)methyl)amino)isoindoline-1,3-dione], the IC50 is more than 1000 nM in the assay on MOLM-13 cells (setting [1]), 100 to 1000 nM with MOLM-13 cells (setting [2]), more than 1000 nM in the assay with MV4;11 cells (setting [3]) and 100 to 1000 nM with MV4;11 cells (setting [4]).
Turning to `CC(C)n1ncc2c(-c3cn([C@H]4C[C@H](CNc5ccc6c(c5)C(=O)N(C5CCC(=O)NC5=O)C6=O)C4)nc3C3CC3)nccc21` (stereo partly drawn) [GS-612, 5-(((trans-3-(3-Cyclopropyl-4-(1-isopropyl-1H-pyrazolo[4,3-c]pyridin-4-yl)-1H-pyrazol-1-yl)cyclobutyl)methyl)amino)-2-(2,6-dioxopiperidin-3-yl)isoindoline-1,3-dione], the IC50 in the assay on MOLM-13 cells (setting [1]), in the assay on MOLM-13 cells (setting [2]), in the assay with MV4;11 cells (setting [3]) and with MV4;11 cells (setting [4]) was less than 10 nM each time.
For the compound `O=C1CCC(N2Cc3ccc(CCCCCCCn4cc(-c5cnc6ccccc6n5)cn4)cc3C2=O)C(=O)N1` (centres unmarked) [GS-105, 3-(1-Oxo-6-(7-(4-(quinoxalin-2-yl)-1H-pyrazol-1-yl)heptyl)isoindolin-2-yl)piperidine-2,6-dione], the IC50 in the assay on MOLM-13 cells (setting [1]) was 10 to 100 nM; in the assay on MOLM-13 cells (setting [5]) it was less than 10 nM; in the assay on MV4;11 cells (setting [3]), 10 to 100 nM; with MV4;11 cells (setting [6]), 10 to 100 nM.
On to `O=C1CCC(N2C(=O)c3ccc(NCCCn4cc(-c5cnc6ccccc6n5)cn4)cc3C2=O)C(=O)N1` (centres unmarked) [GS-355, 2-(2,6-Dioxopiperidin-3-yl)-5-((3-(4-(quinoxalin-2-yl)-1H-pyrazol-1-yl)propyl)amino)isoindoline-1,3-dione], for which the IC50 in the assay on MOLM-13 cells (setting [1]) is more than 1000 nM; with MOLM-13 cells (setting [5]) it was 100 to 1000 nM; in the assay on MV4;11 cells (setting [3]), more than 1000 nM; in the assay on MV4;11 cells (setting [6]) it was 10 to 100 nM.
Regarding `O=C1CCC(N2Cc3ccc(CCCCCCC(=O)N4CCC(c5ccccn5)CC4)cc3C2=O)C(=O)N1` (centres unmarked) [GS-111, 3-(1-Oxo-6-(7-oxo-7-(4-(pyridin-2-yl)piperidin-1-yl)heptyl)isoindolin-2-yl)piperidine-2,6-dione], the IC50 in the assay on MOLM-13 cells (setting [1]) is more than 1000 nM; in the assay on MOLM-13 cells (setting [5]), 100 to 1000 nM; in the assay with MV4;11 cells (setting [3]), 100 to 1000 nM; in the assay with MV4;11 cells (setting [6]) it was 10 to 100 nM.
As to `O=C1CCC(N2Cc3cc(NC(=O)Cc4cccc(N5CCC(n6cc(-c7cnc8ccccc8n7)cn6)CC5)c4)ccc3C2=O)C(=O)N1` (centres unmarked) [GS-495, N-(2-(2,6-dioxopiperidin-3-yl)-1-oxoisoindolin-5-yl)-2-(3-(4-(4-(quinoxalin-2-yl)-1H-pyrazol-1-yl)piperidin-1-yl)phenyl)acetamide], the IC50 in the assay with MOLM-13 cells (setting [1]), in the assay with MOLM-13 cells (setting [2]), with MV4;11 cells (setting [3]) and in the assay with MV4;11 cells (setting [4]) was less than 10 nM in each case.
Turning to `Cc1cccc(-c2cn([C@H]3C[C@H](CNc4ccc5c(c4)C(=O)N(C4CCC(=O)NC4=O)C5=O)C3)nc2C)n1` (stereo partly drawn) [GS-449, 2-(2,6-dioxopiperidin-3-yl)-5-(((trans-3-(3-methyl-4-(6-methylpyridin-2-yl)-1H-pyrazol-1-yl)cyclobutyl)methyl)amino)isoindoline-1,3-dione], the IC50 in the assay with MOLM-13 cells (setting [1]), with MOLM-13 cells (setting [2]), in the assay with MV4;11 cells (setting [3]) and in the assay on MV4;11 cells (setting [4]) was more than 1000 nM throughout.
Regarding `Cc1c(-c2cnc3ccccc3n2)cnn1CCCCCCNc1ccc2c(c1)C(=O)N(C1CCC(=O)NC1=O)C2=O` (centres unmarked) [GS-535, 2-(2,6-dioxopiperidin-3-yl)-5-((6-(5-methyl-4-(quinoxalin-2-yl)-1H-pyrazol-1-yl)hexyl)amino)isoindoline-1,3-dione], the IC50 is more than 1000 nM with MOLM-13 cells (setting [1]), less than 10 nM in the assay on MOLM-13 cells (setting [2]), 10 to 100 nM with MV4;11 cells (setting [3]) and 10 to 100 nM with MV4;11 cells (setting [4]).
With `Cc1nc(-c2cn([C@H]3C[C@H](CNc4ccc5c(c4)C(=O)N(C4CCC(=O)NC4=O)C5=O)C3)nc2C(F)F)ccc1F` (stereo partly drawn) [GS-635, 5-(((trans-3-(3-(Difluoromethyl)-4-(5-fluoro-6-methylpyridin-2-yl)-1H-pyrazol-1-yl)cyclobutyl)methyl)amino)-2-(2,6-dioxopiperidin-3-yl)isoindoline-1,3-dione], the IC50 in the assay with MOLM-13 cells (setting [1]) is 10 to 100 nM; in the assay on MOLM-13 cells (setting [2]), less than 10 nM; with MV4;11 cells (setting [3]), 10 to 100 nM; in the assay on MV4;11 cells (setting [4]), less than 10 nM.
As to `CN(Cc1ccc2c(c1)CN(C1CCC(=O)NC1=O)C2=O)C(=O)CCCC(=O)N1CCC(n2cc(-c3cnc4cccc(Br)c4n3)cn2)CC1` (centres unmarked) [GS-058, 5-(4-(4-(8-Bromoquinoxalin-2-yl)-1H-pyrazol-1-yl)piperidin-1-yl)-N-((2-(2,6-dioxopiperidin-3-yl)-1-oxoisoindolin-5-yl)methyl)-N-methyl-5-oxopentanamide], the IC50 with MOLM-13 cells (setting [1]) was 100 to 1000 nM; in the assay with MOLM-13 cells (setting [5]), more than 1000 nM; in the assay on MV4;11 cells (setting [3]), more than 1000 nM; in the assay with MV4;11 cells (setting [6]), 100 to 1000 nM.

The record behind these values is patent publication US20240050428A1 (Cullgen (Shanghai), Inc., priority 2020, published 2024).
